CCc1ccc(CCOc2ccc(CC3SC(=O)NC3=O)cc2)nc1.Cl (stereo not drawn)
solubility (mole fraction)
Details	in DMF	in acetic acid	in ethanol	in methanol	in n-propanol
278.15 K	0.0161	–	0.000535	0.004	0.000325
283.15 K	0.017	–	–	0.00494	0.000395
284.15 K	–	–	0.000626	–	–
288.15 K	0.0183	0.00108	0.000723	0.00615	0.000456
293.15 K	0.0194	0.0015	0.000879	0.00738	0.000522
298.15 K	0.021	0.00203	0.00103	0.0086	0.00063
303.15 K	0.0227	0.00276	0.00121	0.0101	0.00075
308.15 K	0.0247	0.0038	0.00147	0.0121	0.00088
313.15 K	0.0269	0.00558	0.00178	0.0144	0.00104
318.15 K	0.0292	0.00804	0.00222	0.0173	0.00127
323.15 K	0.0323	0.0118	0.00266	0.0211	0.00149

Reference: BigSolDB 2.1
